Several values for one entry are separate records, joined by “and”; a condition that tells them apart may be missing. Equal entries are not always repeated.
Tests used:
[1] = tested on: P. falciparum male gametogenesis; assay: Phenotypic immunofluorescence assay of male gamete formation; format: cell-based, Plasmodium falciparum; settings: 10 µM, 24 h treatment, 0–20 min post induction
Method: In vitro evolution followed by whole-genome analysis is the primary approach currently used for understanding how compounds act in malaria parasites. As it is not currently feasible to generate resistant mutants to compounds that are only active in the gametocyte stage (resistance generation requires extensive rounds of replication in the presence of compound), phenotypic immunofluorescence assays were performed to evaluate compound activity on male gamete formation. Gametocytes treated with 10 µM of each compound were sampled at 0, 2, 3, 4, 6, 8, 10, and 20 min post induction of gamete formation before imaging (Fig. 4). Individual male cells were then extracted from the images and analysed for shape and haploid chromosome number/DNA content to quantitatively measure the progression of DNA replication (n = 198–668 cells) (Fig. 5a).
Day 14 gametocyte culture was divided into 4 ml aliquots and treated either with DMSO or 10 µM test compound. After 24 h, 500 µl aliquots of the non-activated gametocytes were fixed in an equal volume of 8% paraformaldehyde (PFA) warmed to 37 °C to generate Time = 0 min (t = 0) samples. Gamete formation was induced in the remainder of the cultures by cooling to RT and addition of 500 µl ookinete medium. At t = 2, 3, 4, 6, 8, 10, and 20 min 500 µl of culture was removed and immediately fixed in equal volume of 8% PFA at room temperature for 15 min. Fixed cells were diluted in PBS and allowed to settle onto poly-L-lysine-coated glass coverslips overnight. The next day, cells were washed in PBS, permeabilized in 0.1% Triton X-100 and blocked in PBS + 10% FBS. Cells were stained with mouse anti-alpha tubulin (Sigma) clone DM1A (1:500 dilution) and rabbit anti-Glycophorin A (Abcam) clone EPR8200 (1:1000 dilution). Staining was visualised with anti-mouse […] and anti-rabbit Alexa555 (Thermo-Fisher) both at 1:1000 dilution. Coverslips were mounted onto glass slides with VectaShield mountant (Vector Laboratories) containing 4′,6-diamidino-2-phenylindole (DAPI) to visualise cellular DNA. Cells were imaged at random (n = 195–668 cells per test compound) using a Nikon Ti-E widefield microscope using a × 100 objective lens and taken in 0.2 µm slice z-stack images to capture the whole cell. All images were converted to maximum intensity projections in NIS Elements v4.20 and all further image processing performed in ICY. Individual cells were manually selected and automatically extracted from each image using the Active Contours plugin gated to the tubulin staining. Using the ROI Statistics plugin, the following parameters were calculated for each cell and exported to MS Excel: Cell area, Cell roundness, Cell elongation, and Average intensity of blue channel (DNA). […] Outlier cells from the curve were all exflagellating (Supplementary Fig. 6). These two parameters were combined as a ratio of roundness:elongation to produce the parameter Cell shape. Cellular DNA content was estimated by multiplying the average pixel intensity of the blue channel (after subtracting the background intensity of an empty area in the same parent image) with the total cell area.

[2] = tested on: P. falciparum transmission to Anopheles stephensi mosquitoes; assay: P. falciparum standard membrane-feeding assay (SMFA), luciferase oocyst readout; format: in vivo, Plasmodium falciparum; settings: 10 µM
Method: SMFAs were performed commercially by TropiQ Health Sciences (Nijmegen, The Netherlands)[26]. Cultures of mature stage V gametocytes of P. falciparum expressing a GFP-Luciferase fusion protein under the control of the hsp70 promoter were treated with DMSO or 10 µM of test compound for 24 h (indirect mode). They were then mixed with uninfected erythrocytes and pelleted. The cell pellet was resuspended in human serum to form the blood meal and fed to Anopheles stephensi mosquitoes. […] Eight days after infection, mosquitoes were individually processed and their lysate assessed for luciferase activity in comparison to uninfected mosquitoes.

[3] = tested on: P. falciparum male gametocytes; assay: Pf DGFA wash-out format, male readout; format: cell-based; settings: Plasmodium falciparum; 48h preincubation/wash-out
[4] = tested on: NF54 stage V gametocytes; assay: Gametocytocidal MitoTracker-based viability assay (SaLSSA); format: cell-based, Plasmodium falciparum NF54; settings: Plasmodium falciparum, NF54; 72h incubation; read-out: Pf Stage V GCT (mitotracker assay) IC50
Method: As another independent assessment of the metabolic viability of compound-treated stage V gametocytes, the Saponin-lysis Sexual Stage Assay (SaLSSA) was employed. A volume of 100 nl of test compounds were pre-dispensed in 384-well plates (781091-2B, Greiner) in 12-point dose response (25 µM to 1.41 × 10^−4 µM), prior to the addition of synchronous NF54 stage V gametocytes (40 µl at 0.70% gametocytaemia). Assay plates were then incubated for 72 h in a low oxygen environment (92% N2, 5% CO2, 3%O2) before a 10 µl MitoTracker Red CMXRos (2.5 µM) and saponin solution (0.13%w/v) was added. Plates were returned to 37 °C for 1 h to allow for complete red blood cell lysis, after which viable gametocytes were detected using an Operetta high-content imaging system. Analysis was performed using the Harmony package software, with potency calculated relative to puromycin (positive control) and DMSO (negative control).

[5] = tested on: P. falciparum female gametocytes; assay: Pf DGFA wash-out format, female readout; format: cell-based; settings: Plasmodium falciparum; 48h preincubation/wash-out
[6] = tested on: P. falciparum transmission to Anopheles stephensi mosquitoes; assay: P. falciparum standard membrane-feeding assay (SMFA), luciferase oocyst readout; format: in vivo, Plasmodium falciparum; settings: 10 µM; remark: listed apart in the source
[7] = tested on: P. berghei 507 strain in mice, transmission to Anopheles stephensi; assay: P. berghei mosquito (direct) feeding assay in infected mice; format: in vivo, Plasmodium berghei; settings: for Infection Prevalence (%) / Mean oocysts per mosquito: per mouse
Method: Six- to eight-week female T0 mice were treated with phenylhydrazine 3 days prior to intraperitoneal (IP) inoculation with 100 µl of mouse blood infected with the constitutively GFP expressing P. berghei 507 strain[39]. On day 3 after infection, thin blood smears were taken from tail blood to quantify parasitaemia and gametocytaemia. […] […] Twenty-four hours after feeding, unfed mosquitoes were removed and remaining mosquitoes maintained for a further 9 days on sucrose solution. Mosquito midguts were then dissected, imaged and oocysts quantified by semi-automated computer analysis.

[8] = Aqueous solubility (DMPK); format: physicochemical; settings: aqueous medium
Method: DMPK analyses were performed by the Dundee University Drug Discovery Unit and BPCA/DDD599 stability analysis were undertaken by chemists at GlaxoSmithKline using in-house, standardised approaches.

[9] = Dose 30min prior, listed as DDD881
[10] = mode indirect, per experiment, listed as DDD881

Row | SMILES | IC50 [3] | IC50 [4] | IC50 [5] | further results
1 | O=C(CCl)Nc1ccc(Br)cc1 [BPCA, N-(4-bromophenyl)-2-chloroacetamide] |  |  |  | phenotype of male gametogenesis (IFA) [1]: rounded up after induction but most cells did not replicate their DNA and none exflagellated; prevalence of infection, % of the DMSO control ([2]; indirect mode): 25.12%; mean normalised luciferase intensity ([2]; indirect mode, 24 h gametocyte incubation, oocysts 8 days later): 5.27 arbitrary units
2 | CC(=O)c1c(C)nn(CC(=O)Nc2ccc(Br)cc2)c1C [DDD01027599] | 0.97 µM | 5.55 µM | 3.11 µM | 
3 | O=S(=O)(NCC1(O)CCOc2ccccc21)c1ccccc1F (centres unmarked) [DDD01028073] | > 12.5 µM | > 25 µM | > 12.5 µM | 
4 | Cc1ccc(S(=O)(=O)NCC2(O)CCOc3ccccc32)s1 (centres unmarked) [DDD01028074] | > 12.5 µM | > 25 µM | > 12.5 µM | 
5 | O=S(=O)(NCC1(O)CCOc2ccccc21)c1ccc(Cl)s1 (centres unmarked) [DDD01028075] | > 12.5 µM | > 25 µM | > 12.5 µM | 
6 | O=S(=O)(NCC1(O)CCOc2ccccc21)c1ccccc1Br (centres unmarked) [DDD01028076] | > 12.5 µM | > 25 µM | > 12.5 µM | 
7 | COc1cccc(-n2ccc3nc(N4CCCC4)ncc3c2=O)c1 [DDD01034957] |  | > 25 µM |  | 
8 | O=S(=O)(NCC1(O)CCOc2ccccc21)c1cccs1 (centres unmarked) [DDD01035879] | > 12.5 µM | > 25 µM | > 12.5 µM | 
9 | O=S(=O)(NCC1(O)CCOc2ccccc21)c1ccc(Br)s1 (centres unmarked) [DDD01035881] | > 12.5 µM | > 25 µM | > 12.5 µM | mean normalised luciferase intensity ([6]; direct mode): 0.26; prevalence, % of DMSO control ([6]; direct mode): 0.49%; Average oocyst intensity ([6]; mode direct, per experiment): 2.8; Prevalence ([6]; mode direct, per experiment): 0.0%; blockade on oocyst intensity ([7]; 50 mg kg^−1 IP, 30 min before the feed): 99.6%; transmission blocking efficacy at the oocyst level ([7]; 50 mg kg^−1 IP, 24 h before mosquito feeding): no transmission blocking efficacy; suppression of gametocytaemia compared to vehicle-only controls ([7]; 50 mg kg^−1 IP, 24 h exposure): not impacted; effect on asexual parasitaemia ([7]; 50 mg kg^−1 IP, single dose): not impacted; Infection Prevalence (%) [7, 9]: 54.35% and 23.08%; Mean oocysts per mosquito [7, 9]: 1.43 and 0.60; Infection Prevalence (%) ([7]; Dose 24hr prior to feeding): 100%; Mean oocysts per mosquito ([7]; Dose 24hr prior to feeding, listed as DDD881): 330.22 and 190.61; solubility [8]: > 250 µM; phenotype of male gametogenesis (IFA) [1]: only a few cells replicated their DNA and none exflagellated; Average oocyst intensity [2, 10]: 4.2 and 4.1; Prevalence [2, 10]: 1.4% and 0.0%
10 | CC(c1ccco1)N(C(=O)CNc1ccc(C#N)cc1)C1CC1 (centres unmarked) [DDD01062645] | > 12.5 µM | > 25 µM | > 12.5 µM | 

Reference: PMC6143625, “A high throughput screen for next-generation leads targeting malaria parasite transmission” (Nature Communications, 2018)
